Earlier results in patent US20140221490A1, “METHODS OF TREATING PAIN” (Hospira, Inc., priority 2011, published 2014).

Conditions: cited from earlier work; for Prot. bind., drug fraction bound to protein (fP): plasma; for Cmax: read-out: Cmax, maximum drug concentration in plasma, based on the drug's pharmacokinetics and administration of a normal drug dose; for K1:1, stability constant of 1:1 inclusion complex with HPβCD: literature reference

Row | Structure (SMILES) | Vd, volume of distribution [L/kg] | Prot. bind., drug fraction bound to protein (fP) | Cmax [µM] | K1:1, stability constant of 1:1 inclusion complex with HPβCD
1 | CC(=O)Nc1ccc(O)cc1 [Acetaminophen] | 0.95 | 20% | 50 | 
2 | CC(=O)Nc1nnc(S(N)(=O)=O)s1 [Acetazolamide] | 0.2 | 95% | 160 | 
3 | CC(=O)Oc1ccccc1C(=O)O [Acetylsalicylic acid] | 0.15 | 80% | 530 | 100^l M^−1
4 | Nc1nc2c(ncn2COCCO)c(=O)[nH]1 [Acyclovir] |  |  | 7.2 | 770^2 M^−1
5 | CC1(C)S[C@@H]2[C@H](NC(=O)[C@H](N)c3ccc(O)cc3)C(=O)N2[C@H]1C(=O)O [Amoxicillin] | 0.3 | 20% | 65 | 
6 | CCNC(=O)CCC/C=C\C[C@@H]1[C@@H](/C=C/[C@@H](O)CCc2ccccc2)[C@H](O)C[C@@H]1O [Bimatoprost] | 0.67 | 88% | 0.00019 | 1,900^i M^−1
7 | CCCCN1CCCCC1C(=O)Nc1c(C)cccc1C (centres unmarked) [Bupivacaine] | 1.0 | 95% | 6.9 | 13^5 M^−1
8 | NC(=O)N1c2ccccc2C=Cc2ccccc21 [Carbamazepine] | 1.4 | 75% | 34 | 630^6 M^−1
9 | COc1ccccc1OCCNCC(O)COc1cccc2[nH]c3ccccc3c12 (centres unmarked) [Carvedilol] | 1.7 | 98% | 400 | 580^7 M^−1
10 | C=CC1=C(C(=O)O)N2C(=O)[C@@H](NC(=O)/C(=N\O)c3csc(N)n3)[C@H]2SC1 [Cefdinir] | 0.35 | 70% | 7.3 | 59^8 M^−1
11 | C=CC1=C(C(=O)O)N2C(=O)[C@@H](NC(=O)/C(=N\OCC(=O)O)c3csc(N)n3)[C@H]2SC1 [Cefixime] | 1.0 |  | 360 | 1,400^9 M^−1
12 | Cc1ccc(-c2cc(C(F)(F)F)nn2-c2ccc(S(N)(=O)=O)cc2)cc1 [Celecoxib] | 6.5 | 97% | 1.9 | 630^10 M^−1
13 | CC(=O)OCC1=C(C(=O)O)N2C(=O)[C@@H](NC(=O)Cc3cccs3)[C@H]2SC1 [Cephalothin] | 0.26 | 80% | 76 | 70^11 M^−1
14 | O=C(N[C@H](CO)[C@H](O)c1ccc([N+](=O)[O-])cc1)C(Cl)Cl [Chloramphenicol] | 0.80 | 80% | 130 | 
15 | CNC1=Nc2ccc(Cl)cc2C(c2ccccc2)=[N+]([O-])C1 [Chlordiazepoxide] |  | 96% |  | 
16 | NS(=O)(=O)c1cc(C2(O)NC(=O)c3ccccc32)ccc1Cl (centres unmarked) [Chlortalidone (chlorthalidone), chlorthalidone] | 4.0 | 75% | 19 | 115^14 M^−1
17 | C[C@H]1C[C@H]2[C@@H]3CCC4=CC(=O)C=C[C@]4(C)[C@@]3(F)[C@@H](O)C[C@]2(C)[C@@]1(O)C(=O)CO [Cilest (betamethasone), betamethasone] |  | 64% | 0.29 | 3,000^16 M^−1
18 | O=C(O)Cc1ccccc1Nc1c(Cl)cccc1Cl [Diclofenac Na, diclofenac sodium] | 0.17 | 99.5% | 13 | 
19 | Clc1ccc(COC(Cn2ccnc2)c2ccc(Cl)cc2Cl)cc1 (centres unmarked) [Econazole nitrate] |  | (96) % | 5.5 | 13^20 M^−1
20 | C[C@]12CC[C@@H]3c4ccc(O)cc4CC[C@H]3[C@@H]1CC[C@@H]2O [Estradiol] | 1 | 97% | 0.00053 | 2,000^22 M^−1
21 | CCc1cccc2c3c([nH]c12)C(CC)(CC(=O)O)OCC3 (centres unmarked) [Etodolac] | 0.4 | 99% | 170 | 
22 | O=C1[C@H](CC[C@H](O)c2ccc(F)cc2)[C@@H](c2ccc(O)cc2)N1c1ccc(F)cc1 [Ezetimibe] | 1.5 | 90% | 0.012 | 1,300^23 M^−1
